Source: BigSolDB 2.1

Nc1cc(Cl)ccc1[N+](=O)[O-]
solubility (mole fraction)
Settings	283.15 K	288.15 K	293.15 K	298.15 K	303.15 K	308.15 K	313.15 K	318.15 K	323.15 K
in 2-butanone	0.141	0.149	0.164	0.173	0.187	0.203	0.218	0.234	0.252
in acetone	0.126	0.141	0.152	0.165	0.183	0.2	0.219	0.242	0.262
in acetonitrile	0.0303	0.036	0.0428	0.0519	0.0633	0.0751	0.0945	0.11	0.135
in ethanol	0.0164	0.0184	0.0215	0.0243	0.0273	0.0317	0.0373	0.0441	0.0497
in ethyl acetate	0.0983	0.107	0.117	0.133	0.144	0.158	0.174	0.193	0.24
in isobutanol	0.0116	0.0129	0.0154	0.0185	0.0219	0.0259	0.0308	0.0361	0.0444
in isopropanol	0.0146	0.017	0.0197	0.0232	0.0267	0.0321	0.0372	0.0451	0.0539
in methanol	0.0104	0.0122	0.0142	0.0164	0.019	0.0235	0.027	0.0326	0.0374
in methyl acetate	0.101	0.108	0.12	0.133	0.147	0.162	0.178	0.192	0.214
in n-butanol	0.0182	0.0209	0.0246	0.0283	0.0311	0.0358	0.0426	0.0481	0.0553
in n-propanol	0.0161	0.0184	0.0214	0.0246	0.0284	0.0315	0.0373	0.0452	0.0517
in water	5.45e-06	9.54e-06	1.22e-05	1.77e-05	2.18e-05	2.73e-05	3.53e-05	4.25e-05	4.78e-05
